Reference: patent US20110171300A1, “DELTA 9 TETRAHYDROCANNABINOL DERIVATIVES” ([…] LIMITED, priority 2007, published 2011)

Tests used:
[1] = Stability to light and air at ambient temperature; format: physicochemical
[2] = air; cited from earlier work

Structure (SMILES) | Stability [1] | Stability at room temperature [2]
CCCCCc1cc2c(c(OS(=O)(=O)C[C@]34CCC(CC3=O)C4(C)C)c1)[C@@H]1C=C(C)CC[C@H]1C(C)(C)O2 [Example 1, Δ9-THC (1S)-(+)-Camphorsulfonate] | Stable to light and air at ambient temperature | 
CCCCCc1cc2c(c(OS(=O)(=O)c3cccs3)c1)[C@@H]1C=C(C)CC[C@H]1C(C)(C)O2 [Example 2, Δ9-THC 2-thiophene sulfonate] | Stable to light and air at ambient temperature | 
CCCCCc1cc2c(c(OS(=O)(=O)CCC)c1)[C@@H]1C=C(C)CC[C@H]1C(C)(C)O2 [Example 3, Δ9-THC n-propyl sulfonate] | Stable to light and air at ambient temperature | 
CCCCCc1cc2c(c(OS(=O)(=O)CCCCl)c1)[C@@H]1C=C(C)CC[C@H]1C(C)(C)O2 [Example 4, Δ9-THC 3-chloropropyl sulfonate] | Stable to light and air at ambient temperature | 
CCCCCc1cc(O)c2c(c1)OC(C)(C)[C@@H]1CCC(C)=C[C@@H]21 [Δ9-THC, Δ9-tetrahydrocannabinol] |  | relatively unstable
